Measurements: patent US11331299B2, “Medicinal use of serrulatane diterpenes” (The University of Sydney, priority 2016, dated 2022)

Columns and labels:
Experiment in all cases: biochemical
Type in all cases: binding
[1] = biological target: receptors (Bioprint panel) (Homo sapiens, UniProt P43116); details: PROSTANOID EP2 (h) (agonist radioligand); 10 μM; read-out: % Inhibition of Control Specific Binding
[2] = biological target: receptors (Bioprint panel) (Mus musculus, UniProt Q01727); details: MELANOCORTIN MC1 (agonist radioligand); 10 μM; read-out: % Inhibition of Control Specific Binding
[3] = biological target: receptors (Bioprint panel) (Homo sapiens, UniProt P24530); details: […] (h) (agonist radioligand); 10 μM; read-out: % Inhibition of Control Specific Binding
Sequence of receptors (Bioprint panel) (Homo sapiens, UniProt P24530) (P24530 27-442): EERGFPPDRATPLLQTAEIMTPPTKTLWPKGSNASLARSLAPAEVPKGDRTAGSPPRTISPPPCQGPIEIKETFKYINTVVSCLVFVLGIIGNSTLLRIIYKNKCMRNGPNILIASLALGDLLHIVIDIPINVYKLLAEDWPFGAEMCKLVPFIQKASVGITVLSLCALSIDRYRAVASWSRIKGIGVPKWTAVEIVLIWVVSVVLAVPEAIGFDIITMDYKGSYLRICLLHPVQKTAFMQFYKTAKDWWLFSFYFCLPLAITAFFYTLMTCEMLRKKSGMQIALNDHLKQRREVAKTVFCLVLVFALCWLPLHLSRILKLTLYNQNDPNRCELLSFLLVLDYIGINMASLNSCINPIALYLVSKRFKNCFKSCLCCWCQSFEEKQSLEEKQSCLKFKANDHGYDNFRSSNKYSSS

[4] = biological target: receptors (Bioprint panel) (Homo sapiens, UniProt P25929); details: NE[…] Y1 (h) (agonist radioligand); 10 μM; read-out: % Inhibition of Control Specific Binding
Sequence of receptors (Bioprint panel) (Homo sapiens, UniProt P25929) (P25929 whole entry): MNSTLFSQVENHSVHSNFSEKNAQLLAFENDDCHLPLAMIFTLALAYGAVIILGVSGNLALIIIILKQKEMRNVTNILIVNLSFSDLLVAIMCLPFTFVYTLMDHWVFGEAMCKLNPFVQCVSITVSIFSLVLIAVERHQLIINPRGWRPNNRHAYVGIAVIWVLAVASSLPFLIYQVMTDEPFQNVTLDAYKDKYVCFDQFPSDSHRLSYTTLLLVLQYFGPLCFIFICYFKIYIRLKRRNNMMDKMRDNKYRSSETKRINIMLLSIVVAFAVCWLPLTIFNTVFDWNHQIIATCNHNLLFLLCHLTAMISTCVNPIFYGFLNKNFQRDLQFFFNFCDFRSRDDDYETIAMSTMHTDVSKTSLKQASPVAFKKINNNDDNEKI

[5] = biological target: receptors (Bioprint panel) (Homo sapiens, UniProt Q99705); details: MELANIN-CONCENTRATING-HORMONE MCH1 (h) (agonist radioligand); 10 μM; read-out: % Inhibition of Control Specific Binding
[6] = biological target: receptors (Bioprint panel) (Homo sapiens, UniProt P29274); details: ADENOSINE A2A (h) (agonist radioligand); 10 μM; read-out: % Inhibition of Control Specific Binding
[7] = biological target: receptors (Bioprint panel) (Homo sapiens, UniProt P10275); details: 10 μM
[8] = biological target: receptors (Bioprint panel) (Homo sapiens, UniProt P29275); details: ADENOSINE A2B (h) (antagonist radioligand); 10 μM; read-out: % Inhibition of Control Specific Binding
[9] = biological target: receptors (Bioprint panel) (Homo sapiens, UniProt P41595); details: read-out: % Inhibition of Control Specific Binding
Sequence of receptors (Bioprint panel) (Homo sapiens, UniProt P41595) (P41595 whole entry): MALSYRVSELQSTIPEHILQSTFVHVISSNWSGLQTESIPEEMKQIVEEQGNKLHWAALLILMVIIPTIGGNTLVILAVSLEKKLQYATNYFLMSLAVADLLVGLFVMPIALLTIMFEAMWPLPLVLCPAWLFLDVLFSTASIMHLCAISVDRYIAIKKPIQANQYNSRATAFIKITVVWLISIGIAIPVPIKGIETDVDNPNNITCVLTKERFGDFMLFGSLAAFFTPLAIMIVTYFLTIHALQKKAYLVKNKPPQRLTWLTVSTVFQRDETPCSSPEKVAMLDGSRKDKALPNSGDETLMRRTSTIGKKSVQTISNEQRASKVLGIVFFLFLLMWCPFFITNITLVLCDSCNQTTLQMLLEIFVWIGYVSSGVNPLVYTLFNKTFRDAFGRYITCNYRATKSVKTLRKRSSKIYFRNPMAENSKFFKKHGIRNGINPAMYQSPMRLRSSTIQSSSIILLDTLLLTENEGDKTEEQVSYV

[10] = biological target: receptors (Bioprint panel) (Homo sapiens, UniProt P35348); details: […] alpha 1A (h) (antagonist radioligand); 10 μM; read-out: % Inhibition of Control Specific Binding
Sequence of receptors (Bioprint panel) (Homo sapiens, UniProt P35348) (P35348 whole entry): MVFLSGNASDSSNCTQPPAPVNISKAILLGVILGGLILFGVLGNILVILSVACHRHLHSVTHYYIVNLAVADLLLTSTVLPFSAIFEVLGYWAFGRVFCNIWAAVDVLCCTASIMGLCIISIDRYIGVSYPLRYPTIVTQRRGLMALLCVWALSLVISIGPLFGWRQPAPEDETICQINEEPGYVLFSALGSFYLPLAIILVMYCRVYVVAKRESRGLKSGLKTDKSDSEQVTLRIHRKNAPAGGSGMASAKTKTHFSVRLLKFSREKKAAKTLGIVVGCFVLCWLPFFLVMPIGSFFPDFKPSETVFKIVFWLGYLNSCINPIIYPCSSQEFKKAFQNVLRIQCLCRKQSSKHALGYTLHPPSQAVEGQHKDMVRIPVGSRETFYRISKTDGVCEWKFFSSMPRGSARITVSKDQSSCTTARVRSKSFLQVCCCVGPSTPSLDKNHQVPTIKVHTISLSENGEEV

[11] = biological target: receptors (Bioprint panel) (Homo sapiens, UniProt P41146); details: OPIOD & OPIOID-LIKE NOP (ORL1) (h) (agonist radioligand); 10 μM; read-out: % Inhibition of Control Specific Binding
Sequence of receptors (Bioprint panel) (Homo sapiens, UniProt P41146) (P41146 whole entry): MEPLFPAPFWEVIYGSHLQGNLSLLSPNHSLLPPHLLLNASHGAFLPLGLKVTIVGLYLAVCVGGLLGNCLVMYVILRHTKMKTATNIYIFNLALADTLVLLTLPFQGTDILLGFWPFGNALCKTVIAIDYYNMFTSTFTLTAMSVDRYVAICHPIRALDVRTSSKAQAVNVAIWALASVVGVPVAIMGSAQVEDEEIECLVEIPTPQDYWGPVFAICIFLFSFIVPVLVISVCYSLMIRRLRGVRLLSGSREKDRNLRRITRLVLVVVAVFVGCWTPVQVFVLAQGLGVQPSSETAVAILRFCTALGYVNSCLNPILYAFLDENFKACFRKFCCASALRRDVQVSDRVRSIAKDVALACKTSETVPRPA

[12] = biological target: receptors (Bioprint panel) (Homo sapiens, UniProt P21452); details: NEUROKININ NK2 (h) (agonist radioligand); 10 μM; read-out: % Inhibition of Control Specific Binding
[13] = biological target: receptors (Bioprint panel) (Homo sapiens, UniProt P20309); details: […] M3 (h) (antagonist radioligand); 10 μM; read-out: % Inhibition of Control Specific Binding
Sequence of receptors (Bioprint panel) (Homo sapiens, UniProt P20309) (P20309 whole entry): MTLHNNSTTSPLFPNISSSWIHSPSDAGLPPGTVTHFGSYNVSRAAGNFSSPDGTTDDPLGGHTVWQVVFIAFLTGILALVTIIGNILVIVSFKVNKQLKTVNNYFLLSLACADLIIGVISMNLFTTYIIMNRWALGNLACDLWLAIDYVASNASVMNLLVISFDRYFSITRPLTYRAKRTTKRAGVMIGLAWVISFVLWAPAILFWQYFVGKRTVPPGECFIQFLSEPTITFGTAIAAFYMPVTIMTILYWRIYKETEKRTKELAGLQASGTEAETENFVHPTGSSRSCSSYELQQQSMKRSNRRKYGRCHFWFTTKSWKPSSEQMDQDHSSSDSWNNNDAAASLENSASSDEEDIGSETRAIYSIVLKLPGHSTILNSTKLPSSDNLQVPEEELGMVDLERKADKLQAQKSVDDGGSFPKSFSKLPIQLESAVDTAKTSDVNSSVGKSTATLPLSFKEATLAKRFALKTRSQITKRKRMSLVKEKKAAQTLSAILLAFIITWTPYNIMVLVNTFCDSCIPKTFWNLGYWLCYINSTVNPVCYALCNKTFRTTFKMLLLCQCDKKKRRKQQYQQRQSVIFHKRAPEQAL

[14] = biological target: receptors (Bioprint panel) (Homo sapiens, UniProt Q9Y271); details: read-out: % Inhibition of Control Specific Binding
[15] = biological target: receptors (Bioprint panel) (Homo sapiens, UniProt Q9UBS5); details: GABA GABAB(1b) (h) (antagonist radioligand); 10 μM; read-out: % Inhibition of Control Specific Binding
[16] = biological target: receptors (Bioprint panel) (Homo sapiens, UniProt P50052); details: A[…] AT2 (h) (agonist radioligand); 10 μM; read-out: % Inhibition of Control Specific Binding
Sequence of receptors (Bioprint panel) (Homo sapiens, UniProt P50052) (P50052 whole entry): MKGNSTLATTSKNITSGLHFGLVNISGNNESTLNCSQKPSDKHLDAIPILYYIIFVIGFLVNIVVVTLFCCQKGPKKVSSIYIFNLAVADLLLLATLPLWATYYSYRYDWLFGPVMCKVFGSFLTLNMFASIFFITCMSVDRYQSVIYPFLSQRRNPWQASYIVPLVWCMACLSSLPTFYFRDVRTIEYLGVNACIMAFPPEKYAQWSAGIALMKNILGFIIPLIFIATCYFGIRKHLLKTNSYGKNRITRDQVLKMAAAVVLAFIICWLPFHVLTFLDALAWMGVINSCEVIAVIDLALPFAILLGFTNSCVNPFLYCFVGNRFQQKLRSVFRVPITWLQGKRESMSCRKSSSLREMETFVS

[17] = biological target: receptors (Bioprint panel) (Homo sapiens, UniProt P30542); details: ADENOSINE A1 (h) (agonist radioligand); 10 μM; read-out: % Inhibition of Control Specific Binding
[18] = biological target: receptors (Bioprint panel) (Homo sapiens, UniProt P25021); details: HISTAMINE H2 (h) (antagonist radioligand); 10 μM; read-out: % Inhibition of Control Specific Binding
Sequence of receptors (Bioprint panel) (Homo sapiens, UniProt P25021) (P25021 whole entry): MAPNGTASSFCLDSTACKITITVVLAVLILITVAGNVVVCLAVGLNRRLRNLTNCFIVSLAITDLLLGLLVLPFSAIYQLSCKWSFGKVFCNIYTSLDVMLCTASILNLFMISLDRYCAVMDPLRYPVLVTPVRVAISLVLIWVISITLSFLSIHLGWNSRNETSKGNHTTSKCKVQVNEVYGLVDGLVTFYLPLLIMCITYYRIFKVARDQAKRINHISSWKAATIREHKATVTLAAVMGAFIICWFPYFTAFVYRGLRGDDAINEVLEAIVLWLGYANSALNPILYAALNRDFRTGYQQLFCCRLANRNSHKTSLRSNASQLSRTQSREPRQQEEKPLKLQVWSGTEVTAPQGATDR

[19] = biological target: receptors (Bioprint panel) (Homo sapiens, UniProt Q9GZV3); details: choline transporter (CHT1) (h) (antagonist radioligand); 10 μM; read-out: % Inhibition of Control Specific Binding
[20] = biological target: receptors (Bioprint panel) (Homo sapiens, UniProt P28223); details: read-out: % Inhibition of Control Specific Binding
[21] = biological target: receptors (Bioprint panel) (Homo sapiens, UniProt P50406); details: read-out: % Inhibition of Control Specific Binding
[22] = biological target: receptors (Bioprint panel) (Homo sapiens, UniProt Q15722); details: read-out: % Inhibition of Control Specific Binding
Sequence of receptors (Bioprint panel) (Homo sapiens, UniProt Q15722) (Q15722 whole entry): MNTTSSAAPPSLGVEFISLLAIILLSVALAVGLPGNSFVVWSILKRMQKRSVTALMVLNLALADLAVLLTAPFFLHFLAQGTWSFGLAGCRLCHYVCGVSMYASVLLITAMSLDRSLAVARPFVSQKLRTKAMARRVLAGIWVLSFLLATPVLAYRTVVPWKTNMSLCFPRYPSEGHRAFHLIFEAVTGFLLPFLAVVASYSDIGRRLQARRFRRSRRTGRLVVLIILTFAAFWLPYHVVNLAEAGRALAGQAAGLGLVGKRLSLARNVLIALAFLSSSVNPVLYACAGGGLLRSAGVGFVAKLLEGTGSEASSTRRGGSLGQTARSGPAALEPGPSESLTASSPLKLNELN

[23] = biological target: receptors (Bioprint panel) (Homo sapiens, UniProt P14867); details: GABAA1 (h) (alpha 1, beta 2, gamma 2) (agonist radioligand); 10 μM; read-out: % Inhibition of Control Specific Binding
[24] = biological target: receptors (Bioprint panel) (Homo sapiens, UniProt P08908); details: read-out: % Inhibition of Control Specific Binding
Sequence of receptors (Bioprint panel) (Homo sapiens, UniProt P08908) (P08908 whole entry): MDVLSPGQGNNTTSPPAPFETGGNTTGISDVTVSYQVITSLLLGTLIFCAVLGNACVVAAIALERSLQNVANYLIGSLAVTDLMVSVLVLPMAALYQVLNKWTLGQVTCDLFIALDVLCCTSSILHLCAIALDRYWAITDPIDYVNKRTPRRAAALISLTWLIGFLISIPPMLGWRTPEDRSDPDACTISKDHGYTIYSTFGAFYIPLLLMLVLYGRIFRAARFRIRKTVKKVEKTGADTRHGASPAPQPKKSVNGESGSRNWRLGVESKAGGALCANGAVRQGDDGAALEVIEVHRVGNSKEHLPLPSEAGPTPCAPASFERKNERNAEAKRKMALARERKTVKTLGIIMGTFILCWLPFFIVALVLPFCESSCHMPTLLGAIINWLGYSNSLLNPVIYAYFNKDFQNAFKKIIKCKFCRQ

[25] = biological target: receptors (Bioprint panel) (Homo sapiens, UniProt P41597); details: CHEMOKINES CCR2 (h) (agonist radioligand); 10 μM; read-out: % Inhibition of Control Specific Binding
Sequence of receptors (Bioprint panel) (Homo sapiens, UniProt P41597) (P41597 whole entry): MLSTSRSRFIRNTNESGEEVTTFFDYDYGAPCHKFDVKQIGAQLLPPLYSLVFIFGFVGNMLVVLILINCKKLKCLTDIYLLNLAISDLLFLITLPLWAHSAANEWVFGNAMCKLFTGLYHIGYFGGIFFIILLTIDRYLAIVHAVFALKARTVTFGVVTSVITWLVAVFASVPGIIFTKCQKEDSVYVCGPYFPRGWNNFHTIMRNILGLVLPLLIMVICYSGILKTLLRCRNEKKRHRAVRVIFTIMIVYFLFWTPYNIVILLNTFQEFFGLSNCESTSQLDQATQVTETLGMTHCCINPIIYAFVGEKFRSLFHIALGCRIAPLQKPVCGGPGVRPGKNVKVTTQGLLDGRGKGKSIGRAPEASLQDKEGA

[26] = biological target: receptors (Bioprint panel) (Homo sapiens, UniProt P46098); details: read-out: % Inhibition of Control Specific Binding

Sequence of receptors (Bioprint panel) (Homo sapiens, UniProt P43116) (P43116 whole entry): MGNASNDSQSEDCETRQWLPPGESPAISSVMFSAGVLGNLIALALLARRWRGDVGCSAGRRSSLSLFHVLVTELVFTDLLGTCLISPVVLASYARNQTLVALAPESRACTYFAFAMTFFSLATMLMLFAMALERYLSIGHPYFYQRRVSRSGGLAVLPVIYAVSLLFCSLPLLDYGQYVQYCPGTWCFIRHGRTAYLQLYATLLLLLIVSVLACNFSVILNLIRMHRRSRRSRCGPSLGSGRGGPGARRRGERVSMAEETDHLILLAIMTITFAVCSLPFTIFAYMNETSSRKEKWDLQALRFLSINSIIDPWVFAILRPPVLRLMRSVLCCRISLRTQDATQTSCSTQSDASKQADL

SMILES: CC(C)=CCC[C@H](CO)[C@@H]1CC[C@@H](C)c2c1cc(C)c(O)c2O [Compound 1, 7,8,18-trihydroxyserrulat-14-ene]
- inhibition at 10 µM [1]: 53%
- inhibition at 10 µM [2]: 11%
- inhibition at 10 µM [3]: 40%
- inhibition at 10 µM [4]: 29%
- inhibition at 10 µM [5]: -5%
- inhibition at 10 µM [6]: 18%
- % Inhibition of Control Specific Binding [7]: −9%
- inhibition at 10 µM [8]: 8%
- inhibition at 10 µM [9]: 70%
- inhibition at 10 µM [10]: 17%
- inhibition at 10 µM [11]: -4%
- inhibition at 10 µM [12]: 52%
- inhibition at 10 µM [13]: -3%
- inhibition at 10 µM [14]: 10%
- inhibition at 10 µM [15]: -17%
- inhibition at 10 µM [16]: 54%
- inhibition at 10 µM [17]: 10%
- inhibition at 10 µM [18]: 37%
- inhibition at 10 µM [19]: -41%
- inhibition at 10 µM [20]: 9%
- inhibition at 10 µM [21]: 42%
- inhibition at 10 µM [22]: 27%
- inhibition at 10 µM [23]: -36%
- inhibition at 10 µM [24]: -18%
- inhibition at 10 µM [25]: 48%
- inhibition at 10 µM [26]: -2%
